Results from US5736517A, “Treatment of cancer with peptides” (Biomeasure, Inc., priority 1993, dated 1998).
Where a SMILES comes first, the peptide text is derived from it. [ ]: non-standard residue; d: D form. The star is where a group is joined. X1 = CC(C)C[C@@H](CN[C@@H](CC(C)C)C(N)=O)N*; pGlu = O=C1CC[C@@H](C(=O)O)N1

Assays:
[1] = molecular target: T1, bombesin receptors of mouse colon cancer (MC-26) cells (Mus musculus, UniProt P21729); assay: 125I-GRP binding to MC-26 tumor membranes; conditions: 20 pM 125I-GRP
T1 construct: endogenous in cells; host or cells: MC-26 mouse colon carcinoma (tumour membranes)
T1 sequence (P21729 whole entry): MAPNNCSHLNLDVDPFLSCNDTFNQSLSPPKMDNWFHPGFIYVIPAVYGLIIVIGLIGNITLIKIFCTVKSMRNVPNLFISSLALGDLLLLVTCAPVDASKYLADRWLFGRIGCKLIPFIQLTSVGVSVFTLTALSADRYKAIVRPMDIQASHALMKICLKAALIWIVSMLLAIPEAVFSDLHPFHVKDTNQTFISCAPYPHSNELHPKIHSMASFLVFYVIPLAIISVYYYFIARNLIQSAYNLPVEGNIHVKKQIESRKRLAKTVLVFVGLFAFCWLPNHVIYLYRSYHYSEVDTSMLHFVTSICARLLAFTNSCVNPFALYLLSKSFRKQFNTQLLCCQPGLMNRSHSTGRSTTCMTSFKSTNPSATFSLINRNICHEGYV
Protocol: The bombesin analog BIM-26147 was tested for the ability to inhibit growth of the mouse colon tumor MC-26.
(§1) For both FIGS. 1 and 2, aliquots of tumor membranes (150 μg protein) were incubated with 20 pM of ^125 I-GRP in the presence of increasing concentrations of peptides, and the displacement of specifically bound ^125 I-GRP to MC-26 tumor membranes by increasing concentrations of peptides is presented as a percent of maximum specific binding of ^125 I-GRP. Each data point is the mean of two observations within an experiment, and represents two experiments. Table 1 presents the IC50 for ^125 I-GRP binding to mouse colon cancer (MC-26) cells and normal colon mucosal cells in the presence of bombesin receptor antagonists. The data in Table 1 was calculated from FIGS. 1 and 2. The fold difference is relative to bombesin (BBS) values.

[2] = molecular target: T2, bombesin receptors of normal mouse colon mucosal membranes (Mus musculus, UniProt P21729); assay: 125I-GRP binding to normal mouse colon mucosal membranes; conditions: 20 pM 125I-GRP
T2 construct: from tissue; host or cells: normal mouse colon mucosa (membranes)
T2 sequence (P21729 whole entry): as above
Protocol: as §1

[3] = test system: CX-5 human colon tumor; assay: CX-5 human colon tumor, 11-day subrenal capsule assay (SRCA); format: in vivo; conditions: tumor-bearing athymic nude mice, both CX-5 tests (Tables 2 and 3)
From the text: The human colon tumor used for testing was the CX-5 tumor, which was surgically removed from a human and carried as an implant in athymic nude mice. The patient had been untreated prior to surgical removal of the tissue specimen. […] CX-5 was a moderately well-differentiated, mucin secreting adenocarcinoma. The tumor is arranged in acini lined by one or more layers of lining cells which have round to oval vesicular nuclei containing prominent nucleoli. There are frequent mitoses, and the cells have eosinophilic cytoplasm. The acini contain abundant amounts of mucin.
We briefly describe subrenal capsule assay as follows. Tumors, 6-15 mm in diameter, were removed from the athymic mice and immediately placed in RPMI medium (Gibco, Grand Island, N.Y.) at room temperature. In the case of the larger tumors (over 10 mm in diameter), where the central parts frequently contained necrotic tissue, viable tissue was dissected out and placed in a separate Petri dish. The tissue pieces, while immersed in the medium, were cut with scalpels into cubes of approximately 1 mm.
Nude mice were anesthetized by i.p. injection of chloral hydrate (0.35-0.45 ml of a 0.22M solution). A shallow incision was made in the left flank and the kidney was exteriorized. […] Immediately after implantation,the tumor size was measured as described below. […]

IC50 [1]	IC50 [2]	Structure (SMILES)	effect on body weight [3]
80 nM	15 nM	CC(C)C[C@@H](CN[C@@H](CC(C)C)C(N)=O)NC(=O)[C@H](Cc1cnc[nH]1)NC(=O)CNC(=O)[C@@H](NC(=O)[C@H](C)NC(=O)[C@H](Cc1c[nH]c2ccccc12)NC(=O)[C@H](CCC(N)=O)NC(=O)[C@H](CC(N)=O)NC(=O)CNC(=O)[C@H](CC(C)C)NC(=O)[C@H](CCCN=C(N)N)NC(=O)[C@H](CCC(N)=O)NC(=O)[C@@H]1CCC(=O)N1)C(C)C [Leu^13 --.psi.(CH2,NH)--Leu^14 --BBS, Leu^13 .psi.[CH2 NH]Leu^14 bombesin] ([pGlu]QRLGNQWAVGH-X1)	
4.5 nM	1.6 nM	CCCNC(=O)[C@H](CC(C)C)NC(=O)[C@H](Cc1cnc[nH]1)NC(=O)CNC(=O)[C@@H](NC(=O)[C@H](C)NC(=O)[C@H](Cc1c[nH]c2ccccc12)NC(=O)[C@H](CCC(N)=O)NC(=O)[C@H](N)Cc1ccccc1)C(C)C [BIM-26147, D-Phe-Gln-Trp-Ala-Val-Gly-His-Leu-propylamide]	
		CC(C)C[C@@H](CN[C@@H](Cc1ccccc1)C(N)=O)NC(=O)[C@H](Cc1c[nH]cn1)NC(=O)CNC(=O)[C@@H](NC(=O)[C@H](C)NC(=O)[C@H](Cc1c[nH]c2ccccc12)NC(=O)[C@H](CCC(N)=O)NC(=O)[C@H](N)Cc1ccc(Cl)cc1)C(C)C [BIM-26159, D-Cpa-Gln-Trp-Ala-Val-Gly-His-Leu.psi.[CH2 NH]Phe-NH2]	no measurable effect on body weight
